Reference: patent publication US9346815B2, “5-chloro-2-difluoromethoxyphenyl pyrazolopyrimidine compounds, compositions and methods of use thereof” (Genentech, Inc., priority 2014, dated 2016)
pEC50, pKi: −log10 of the molar value.

Assays:
[1] = biological target: isolated recombinant JAK2 kinase domain (Homo sapiens (Human), UniProt O60674); test: JAK2 enzyme assay (Caliper LabChip, peptide phosphorylation); type: biochemical; conditions: 25 μM ATP
[2] = system: JAK1-dependent STAT6 phosphorylation downstream of IL-13 stimulation in TF-1 human erythroleukemia cells; test: JAK1 pathway assay in TF-1 cells (IL-13-pSTAT6, MSD); type: cell-based; conditions: Homo sapiens, TF-1, TF-1 cells, read-out: IL13-pSTAT6 EC50_TF-1
Method: JAK1 Pathway Assay in Cell Lines was Carried Out as Follows:
Inhibitor potency (EC50) was determined in cell-based assays designed to measure JAK1 dependent STAT phosphorylation.
In one assay approach, TF-1 human erythroleukemia cells obtained from the American Type Culture Collection (ATCC; Manassas, Va.) were used to measure JAK1-dependent STAT6 phosphorylation downstream of IL-13 stimulation. Prior to use in the assays, TF-1 cells were starved of GM-CSF overnight in OptiMEM medium (Life Technologies, Grand Island, N.Y.) supplemented with 0.5% charcoal/dextran stripped fetal bovine serum (FBS), 0.1 mM non-essential amino acids (NEAA), and 1 mM sodium pyruvate. The assays were run in 384-well plates in serum-free OptiMEM medium using 300,000 cells per well. In a second assay approach, BEAS-2B human bronchial epithelial cells obtained from ATCC were plated at 100,000 cells per well of a 96-well plate one day prior to the experiment. The BEAS-2B assay was run in complete growth medium (bronchial epithelial basal medium plus bulletkit; Lonza; Basel, Switzerland).
Test compounds were serially diluted 1:2 in DMSO and then diluted 1:50 in medium just before use. Diluted compounds were added to the cells, for a final DMSO concentration of 0.2%, and incubated for 30 min (for the TF-1 assay) or 1 hr (for the BEAS-2B assay) at 37° C. Then, cells were stimulated with human recombinant cytokine at their respective EC90 concentrations, as previously determined for each individual lot. Cells were stimulated with IL-13 (R&D Systems, Minneapolis, Minn.) for 15 min at 37° C. The TF-1 cell reactions were stopped by the direct addition of 10× lysis buffer (Cell Signaling Technologies, Danvers, Mass.), whereas the BEAS-2B cell incubations were halted by the removal of medium and addition of 1× lysis buffer. The resultant samples were frozen in the plates at −80° C. Compound mediated inhibition of STAT6 phosphorylation was measured in the cell lysates using MesoScale Discovery (MSD) technology (Gaithersburg, Md.).

[3] = biological target: isolated recombinant JAK1 kinase domain (Homo sapiens (Human), UniProt P23458); test: JAK1 enzyme assay (Caliper LabChip, peptide phosphorylation); type: biochemical; conditions: isolated recombinant JAK1 kinase domain, 25 μM ATP
Chain of isolated recombinant JAK1 kinase domain (P23458 875-1153): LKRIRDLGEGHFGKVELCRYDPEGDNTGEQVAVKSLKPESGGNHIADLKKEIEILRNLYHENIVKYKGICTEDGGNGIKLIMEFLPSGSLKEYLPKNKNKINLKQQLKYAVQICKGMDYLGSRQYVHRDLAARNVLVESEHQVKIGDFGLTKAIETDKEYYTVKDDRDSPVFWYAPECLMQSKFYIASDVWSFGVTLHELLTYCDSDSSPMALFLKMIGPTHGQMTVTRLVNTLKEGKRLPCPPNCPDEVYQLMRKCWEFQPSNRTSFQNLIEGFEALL

Chain of isolated recombinant JAK2 kinase domain (O60674 849-1124): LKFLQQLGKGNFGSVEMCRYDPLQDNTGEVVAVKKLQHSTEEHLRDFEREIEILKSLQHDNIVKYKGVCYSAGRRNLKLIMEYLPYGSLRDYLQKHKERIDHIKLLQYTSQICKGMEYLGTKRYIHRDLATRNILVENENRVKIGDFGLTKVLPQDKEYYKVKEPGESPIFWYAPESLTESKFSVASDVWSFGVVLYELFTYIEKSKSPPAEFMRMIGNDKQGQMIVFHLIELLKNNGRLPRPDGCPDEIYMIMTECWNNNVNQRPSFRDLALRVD

| pKi [1] | pEC50 [2] | pKi [3] | Compound |
| --- | --- | --- | --- |
| 9.28 | 6.99 | 9.43 | CS(=O)(=O)CCN1C[C@@H]2CN(C(=O)Cn3cc(NC(=O)c4cnn5cccnc45)c(-c4cc(Cl)ccc4OC(F)F)n3)C[C@@H]2C1 [Example 31, N-[1-[2-[(3aS,6aR)-2-(2-methylsulfonylethyl)-1,3,3a,4,6,6a-hexahydropyrrolo[3,4-c]pyrrol-5-yl]-2-oxo-ethyl]-3-[5-chloro-2-(difluoromethoxy)phenyl]pyrazol-4-yl]pyrazolo[1,5-a]pyrimidine-3-carboxamide] |
| 9.23 | 7.82 | 9.17 | COCCN(C)C1CCN(C(=O)Cn2cc(NC(=O)c3c(N)nn4cccnc34)c(-c3cc(Cl)ccc3OC(F)F)n2)CC1 [Example 141, 2-amino-N-[3-[5-chloro-2-(difluoromethoxy)phenyl]-1-[2-[4-[2-methoxy-ethyl(methyl)amino]-1-piperidyl]-2-oxo-ethyl]pyrazol-4-yl]pyrazolo[1,5-a]pyrimidine-3-carboxamide] |
| 9.17 | 7.82 | 9.12 | O=C(Nc1cn(CC(=O)N2C[C@H]3CN(CCCN4C(=O)Cc5ccccc54)C[C@H]3C2)nc1-c1cc(Cl)ccc1OC(F)F)c1cnn2cccnc12 [Example 54, N-[1-[2-[(3aR,6aS)-2-[3-(2-oxoindolin-1-yl)propyl]-1,3,3a,4,6,6a-hexahydropyrrolo[3,4-c]pyrrol-5-yl]-2-oxo-ethyl]-3-[5-chloro-2-(difluoromethoxy)phenyl]pyrazol-4-yl]pyrazolo[1,5-a]pyrimidine-3-carboxamide] |
| 9.72 | 7.92 | 8.97 | O=C(CCCN1CCC(n2cc(NC(=O)c3cnn4cccnc34)c(-c3cc(Cl)ccc3OC(F)F)n2)CC1)NC1CCOCC1 [Example 152, N-[3-[5-chloro-2-(difluoromethoxy)phenyl]-1-[1-[4-oxo-4-(tetrahydropyran-4-ylamino)butyl]-4-piperidyl]pyrazol-4-yl]pyrazolo[1,5-a]pyrimidine-3-carboxamide] |
| 9.16 | 7.63 | 9.00 | O=C(Nc1sc(N2CCN(CC3CC3)CC2)nc1-c1cc(Cl)ccc1OC(F)F)c1cnn2cccnc12 [Example 207, N-[4-[5-chloro-2-(difluoromethoxy)phenyl]-2-[4-(cyclopropylmethyl)piperazin-1-yl]thiazol-5-yl]pyrazolo[1,5-a]pyrimidine-3-carboxamide] |

The next lines start with the compound.

| Compound | pKi [1] | pEC50 [2] | pKi [3] |
| --- | --- | --- | --- |
| CNC(=O)CN1CCC(n2cc(NC(=O)c3cnn4cccnc34)c(-c3cc(Cl)ccc3OC(F)F)n2)CC1 [Example 157, N-[3-[5-chloro-2-(difluoromethoxy)phenyl]-1-[1-[2-(methylamino)-2-oxo-ethyl]-4-piperidyl]pyrazol-4-yl]pyrazolo[1,5-a]pyrimidine-3-carboxamide] | 9.12 | 8.04 | 8.88 |
| CN(C)C(=O)CCCN1CCC(n2cc(NC(=O)c3c(N)nn4cccnc34)c(-c3cc(Cl)ccc3OC(F)F)n2)CC1 [Example 148, 2-amino-N-[3-[5-chloro-2-(difluoromethoxy)phenyl]-1-[1-[4-(dimethylamino)-4-oxo-butyl]-4-piperidyl]pyrazol-4-yl]pyrazolo[1,5-a]pyrimidine-3-carboxamide] | 10.00 | 8.03 | 9.19 |
| CN1CC[C@H]2CN(C(=O)Cn3cc(NC(=O)c4cnn5cccnc45)c(-c4cc(Cl)ccc4OC(F)F)n3)C[C@H]2C1 [Example 53, N-[1-[2-[(3aR,7aR)-5-methyl-3,3a,4,6,7,7a-hexahydro-1H-pyrrolo[3,4-c]pyridin-2-yl]-2-oxo-ethyl]-3-[5-chloro-2-(difluoromethoxy)phenyl]pyrazol-4-yl]pyrazolo[1,5-a]pyrimidine-3-carboxamide] | 8.91 | 7.96 | 9.21 |
| CCOC(=O)N1CCC(CN2C[C@@H]3CN(C(=O)Cn4cc(NC(=O)c5cnn6cccnc56)c(-c5cc(Cl)ccc5OC(F)F)n4)C[C@@H]3C2)CC1 [Example 23, ethyl 4-[[(3aS,6aR)-5-[2-[3-[5-chloro-2-(difluoromethoxy)phenyl]-4-(pyrazolo[1,5-a]pyrimidine-3-carbonylamino)pyrazol-1-yl]acetyl]-1,3,3a,4,6,6a-hexahydropyrrolo[3,4-c]pyrrol-2-yl]methyl]piperidine-1-carboxylate] | 9.09 | 8.07 | 9.15 |
| CC(C)N1C[C@H]2CN(C(=O)Cn3cc(NC(=O)c4cnn5cccnc45)c(-c4cc(Cl)ccc4OC(F)F)n3)C[C@H]2C1 [Example 12, N-[1-[2-[(3aS,6aR)-2-isopropyl-1,3,3a,4,6,6a-hexahydropyrrolo[3,4-c]pyrrol-5-yl]-2-oxo-ethyl]-3-[5-chloro-2-(difluoromethoxy)phenyl]pyrazol-4-yl]pyrazolo[1,5-a]pyrimidine-3-carboxamide] | 8.93 | 7.82 | 8.89 |
| CN1CC[C@@H](n2cc(NC(=O)c3c(N)nn4cccnc34)c(-c3cc(Cl)ccc3OC(F)F)n2)C1 [Example 183, 2-amino-N-[3-[5-chloro-2-(difluoromethoxy)phenyl]-1-[(3R)-1-methylpyrrolidin-3-yl]pyrazol-4-yl]pyrazolo[1,5-a]pyrimidine-3-carboxamide] | 9.64 | 8.17 | 9.31 |
| O=C(Nc1cn(CC(=O)N2CCC3(CCNC3)CC2)nc1-c1cc(Cl)ccc1OC(F)F)c1cnn2cccnc12 [Example 223, N-[3-[5-chloro-2-(difluoromethoxy)phenyl]-1-[2-(2,8-diazaspiro[4.5]decan-8-yl)-2-oxo-ethyl]pyrazol-4-yl]pyrazolo[1,5-a]pyrimidine-3-carboxamide] | 9.14 | 6.73 | 9.36 |
| CN1CCC2(CC1)CN(C(=O)Cn1cc(NC(=O)c3cnn4cccnc34)c(-c3cc(Cl)ccc3OC(F)F)n1)C2 [Example 216, N-[3-[5-chloro-2-(difluoromethoxy)phenyl]-1-[2-(7-methyl-2,7-diazaspiro[3.5]nonan-2-yl)-2-oxo-ethyl]pyrazol-4-yl]pyrazolo[1,5-a]pyrimidine-3-carboxamide] | 8.74 | 7.90 | 8.95 |
| O=C(Nc1cn(C2CCN(CCCN3CCS(=O)(=O)CC3)CC2)nc1-c1cc(Cl)ccc1OC(F)F)c1cnn2cccnc12 [Example 161, N-[3-[5-chloro-2-(difluoromethoxy)phenyl]-1-[1-[3-(1,1-dioxo-1,4-thiazinan-4-yl)propyl]-4-piperidyl]pyrazol-4-yl]pyrazolo[1,5-a]pyrimidine-3-carboxamide] | 9.89 | 7.65 | 8.91 |
| CNC(=O)CCN1CCC(n2cc(NC(=O)c3cnn4cccnc34)c(-c3cc(Cl)ccc3OC(F)F)n2)CC1 [Example 160, N-[3-[5-chloro-2-(difluoromethoxy)phenyl]-1-[1-[3-(methylamino)-3-oxo-propyl]-4-piperidyl]pyrazol-4-yl]pyrazolo[1,5-a]pyrimidine-3-carboxamide] | 9.41 | 7.71 | 8.52 |
| CN1CCC2CN(C(=O)Cn3cc(NC(=O)c4cnn5cccnc45)c(-c4cc(Cl)ccc4OC(F)F)n3)CCC21 (stereo not drawn) [Example 29, N-[3-[5-chloro-2-(difluoromethoxy)phenyl]-1-[2-(1-methyl-3,3a,4,6,7,7a-hexahydro-2H-pyrrolo[3,2-c]pyridin-5-yl)-2-oxo-ethyl]pyrazol-4-yl]pyrazolo[1,5-a]pyrimidine-3-carboxamide] | 8.75 | 8.25 | 9.00 |
| CN(Cc1ccc(Cl)c(Cl)c1)C1CCN(C(=O)Cn2cc(NC(=O)c3cnn4cccnc34)c(-c3cc(Cl)ccc3OC(F)F)n2)CC1 [Example 121, N-[3-[5-chloro-2-(difluoromethoxy)phenyl]-1-[2-[4-[(3,4-dichlorophenyl)methyl-methyl-amino]-1-piperidyl]-2-oxo-ethyl]pyrazol-4-yl]pyrazolo[1,5-a]pyrimidine-3-carboxamide] | 9.51 | 6.85 | 9.62 |
| Nc1nn2cccnc2c1C(=O)Nc1cn(C2CCN(CCCC(=O)NCc3ccccc3)CC2)nc1-c1cc(Cl)ccc1OC(F)F [Example 167, 2-amino-N-[1-[1-[4-(benzylamino)-4-oxo-butyl]-4-piperidyl]-3-[5-chloro-2-(difluoromethoxy)phenyl]pyrazol-4-yl]pyrazolo[1,5-a]pyrimidine-3-carboxamide] | 9.74 | 7.71 | 9.28 |
